This assay has as its system P. falciparum. As to the kind of experiment: P. falciparum infection of A. stephensi fed a supplemented infected bloodmeal. The format is in vivo. On the procedure: For P. falciparum infections A. stephensi were fed on a 1:1 ratio of P. falciparum-infected RBCs containing a treatment or diluent control and provided in a Hemotek Insect Feeding System (Discovery Workshops). ABA was eluted in 100% ethanol and stored at −20 C for up to 6 months. ABA stock was diluted with PBS and added into blood immediately before feeding for final concentrations of 10 nM and 100 nM. For L-NAME feeds mosquitoes were maintained on sugar cubes and water pads containing 1 mg/mL L-NAME for 72 hours before the feed and throughout the course of infection. Infection prevalence data were analyzed by Fisher's Exact Test. Oocyst intensities were analyzed by Mann-Whitney test.

As for `COC(=O)[C@@H](N)CCCNC(=N)N[N+](=O)[O-]` [L-NAME, Nω-Nitro-L-arginine methyl ester, reference compound], the “P. falciparum infection prevalence” value (1 mg/ml L-NAME added to 100 nM ABA-supplemented infected bloodmeal) is “rescued P. falciparum infection prevalence back to control levels”. Further, the P. falciparum infection entry (1 mg/ml L-NAME alone) is “no effect”.

Source of the values: US10154974B1, “Use of abscisic acid for the prevention and treatment of malaria” (The Regents of the University of California, priority 2015, dated 2018).
